From patent US20230265151A1, “GIP/GLP1 CO-AGONIST COMPOUNDS” (priority 2020, published 2023)
Read-outs that look alike come from different tables or passages of the source.

What was measured:
Type in all cases: cell-based
hGIPR = biological target: T1, hGIPR (Homo sapiens, UniProt P48546); assay: Functional cAMP formation (HTRF) in HEK-293 clonal cells expressing hGIPR, 0.1% bovine casein, without or with 1.0% human serum albumin; conditions: 37° C.; for Emax: percent of maximal response to GIP(1-42)NH2, read-out: hGIPR Emax, % ± SEM; for EC50: geometric mean
T1 construct: expressed in transfected cells
T1 sequence (P48546 22-466): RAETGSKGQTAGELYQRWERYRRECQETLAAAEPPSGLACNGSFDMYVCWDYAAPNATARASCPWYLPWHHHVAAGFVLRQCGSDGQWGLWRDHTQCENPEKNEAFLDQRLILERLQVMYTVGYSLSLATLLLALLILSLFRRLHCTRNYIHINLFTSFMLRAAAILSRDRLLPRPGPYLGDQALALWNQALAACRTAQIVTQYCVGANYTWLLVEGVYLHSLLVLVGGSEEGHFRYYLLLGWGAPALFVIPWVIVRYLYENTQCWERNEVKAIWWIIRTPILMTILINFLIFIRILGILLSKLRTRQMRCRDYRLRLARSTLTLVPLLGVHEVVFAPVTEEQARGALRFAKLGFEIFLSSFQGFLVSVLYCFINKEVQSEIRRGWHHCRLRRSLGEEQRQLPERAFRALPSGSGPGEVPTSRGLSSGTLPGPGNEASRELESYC
How it was run: (§1)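 Cells were stimulated with peptide for 30 min at 37° C, then lysed in buffer carrying cAMP-d2 and anti-cAMP Eu3+-cryptate for a competitive HTRF read after at least 60 min at room temperature. The 665/620 nm ratio was converted to nM cAMP against a standard curve.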

hGCGR = biological target: T2, hGCGR (Homo sapiens, UniProt P47871); assay: Functional cAMP formation (HTRF) in HEK-293 clonal cells expressing hGCGR, 0.1% bovine casein, without or with 1.0% human serum albumin; conditions: 37° C., geometric mean
T2 construct: expressed in transfected cells
How it was run: as §1

hGLP-1R = hGLP-1R (Homo sapiens, UniProt P43220); assay: Functional cAMP formation (HTRF) in HEK-293 clonal cells expressing hGLP-1R, 0.1% bovine casein, without or with 1.0% human serum albumin; design: expressed in transfected cells; conditions: for EC50: cAMP, 0.1% bovine casein (no human serum albumin), geometric mean; for Emax: percent of maximal response to GLP-1(7-36)NH2
How it was run: as §1

[1] = HEK293, 0.1% bovine casein and 1.0% human serum albumin
[2] = HEK293, cAMP, 0.1% bovine casein, arithmetic mean
[3] = cAMP, 0.1% bovine casein (no human serum albumin), read-out: hGIPR EC50, nM (SEM, n)
[4] = 0.1% bovine casein and 1.0% human serum albumin, read-out: hGCGR EC50, nM (SEM, n)
[5] = cAMP, 0.1% bovine casein (no human serum albumin), read-out: hGCGR EC50, nM (SEM, n)
[6] = 37° C., read-out: hGLP-1R EC50, nM (SEM, n)
[7] = HEK293, 0.1% bovine casein and 1.0% human serum albumin, 37° C., read-out: hGLP-1R Emax, % ± SEM

Sequence of hGLP-1R (P43220 24-463): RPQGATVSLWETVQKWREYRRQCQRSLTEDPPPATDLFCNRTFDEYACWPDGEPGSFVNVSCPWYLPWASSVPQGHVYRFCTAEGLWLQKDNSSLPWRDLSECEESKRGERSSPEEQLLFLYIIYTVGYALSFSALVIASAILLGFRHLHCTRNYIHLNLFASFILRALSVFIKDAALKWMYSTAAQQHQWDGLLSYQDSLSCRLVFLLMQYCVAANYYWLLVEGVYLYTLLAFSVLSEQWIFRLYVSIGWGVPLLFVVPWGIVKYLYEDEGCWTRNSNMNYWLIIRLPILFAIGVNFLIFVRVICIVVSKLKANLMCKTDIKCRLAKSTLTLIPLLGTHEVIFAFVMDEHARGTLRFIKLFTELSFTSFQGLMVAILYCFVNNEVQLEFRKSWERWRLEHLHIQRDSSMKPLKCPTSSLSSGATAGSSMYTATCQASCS
T2 sequence (P47871 26-477): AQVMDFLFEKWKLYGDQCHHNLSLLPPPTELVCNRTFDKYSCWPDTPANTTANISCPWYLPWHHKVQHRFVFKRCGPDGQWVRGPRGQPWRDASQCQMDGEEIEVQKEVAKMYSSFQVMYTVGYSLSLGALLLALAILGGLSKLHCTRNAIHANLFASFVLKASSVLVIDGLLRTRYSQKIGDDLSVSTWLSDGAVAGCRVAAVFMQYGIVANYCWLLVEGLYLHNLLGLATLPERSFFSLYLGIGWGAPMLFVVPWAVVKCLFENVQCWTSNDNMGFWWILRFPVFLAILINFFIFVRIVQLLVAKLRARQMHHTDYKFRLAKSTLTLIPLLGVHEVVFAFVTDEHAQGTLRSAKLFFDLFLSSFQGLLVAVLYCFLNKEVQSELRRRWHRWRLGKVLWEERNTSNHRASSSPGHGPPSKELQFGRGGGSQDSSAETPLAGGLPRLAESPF

| Compound | Emax (hGIPR; [1]) [%] | Emax (hGIPR; [2]) [%] | EC50 (hGIPR; [3]) [nM] | EC50 (hGCGR; [4]) [nM] | EC50 (hGCGR; [5]) [nM] | EC50 (hGLP-1R; [6]) [nM] | Emax (hGLP-1R; [7]) [%] | EC50 (hGIPR; hGIPR EC50, nM (SEM, n), 0.1% bovine casein and 1.0% human serum albumin) [nM] | EC50 (hGIPR; hGIPR EC50, nM (SEM, n), cAMP, 0.1% bovine casein (no human serum albumin)) [nM] | EC50 (hGCGR; hGCGR EC50, nM (SEM, n), 0.1% bovine casein and 1.0% human serum albumin) [nM] | EC50 (hGCGR; hGCGR EC50, nM (SEM, n), cAMP, 0.1% bovine casein (no human serum albumin)) [nM] | Emax (hGLP-1R; HEK293, read-out: hGLP-1R Emax, % ± SEM, cAMP, 37° C., 0.1% bovine casein, arithmetic mean) [%] | EC50 (hGLP-1R; hGLP-1R EC50, nM (SEM, n), 37° C.) [nM] |
| --- | --- | --- | --- | --- | --- | --- | --- | --- | --- | --- | --- | --- | --- |
| CCCCCCCCCCCC(=O)N[C@@H](CCC(=O)NCCOCCOCC(=O)NCCOCCOCC(=O)NCCCC[C@H](NC(=O)[C@H](CCCN)NC(=O)[C@H](CC(=O)O)NC(=O)[C@H](CC(C)C)NC(=O)[C@](C)(CC(C)C)NC(=O)[C@@H](NC(=O)C(C)(C)NC(=O)[C@H](Cc1ccc(O)cc1)NC(=O)[C@H](CC(=O)O)NC(=O)[C@H](CO)NC(=O)[C@@H](NC(=O)[C@](C)(Cc1ccccc1F)NC(=O)[C@@H](NC(=O)CNC(=O)[C@H](CCC(=O)O)NC(=O)C(C)(C)NC(=O)[C@@H](N)Cc1ccc(O)cc1)[C@@H](C)O)[C@@H](C)O)[C@@H](C)CC)C(=O)N[C@@H](C)C(=O)N[C@@H](CCC(N)=O)C(=O)NC(C)(C)C(=O)N[C@@H](CCC(=O)O)C(=O)N[C@@H](Cc1ccccc1)C(=O)N[C@H](C(=O)N[C@H](CCC(=O)O)C(=O)N[C@@](C)(Cc1ccc(O)cc1)C(=O)N[C@@H](CC(C)C)C(=O)N[C@H](C(=O)N[C@@H](CCCCNC(=O)COCCOCCNC(=O)COCCOCCNC(=O)CC[C@H](NC(=O)CCCCCCCCCCC)C(=O)O)C(=O)NCC(=O)NCC(=O)N1CCC[C@H]1C(=O)N[C@@H](CO)C(=O)N[C@@H](CO)C(=O)NCC(=O)N[C@@H](C)C(=O)N1CCC[C@H]1C(=O)N1CCC[C@H]1C(=O)N1CCC[C@H]1C(=O)N[C@@H](CO)C(N)=O)[C@@H](C)CC)[C@@H](C)CC)C(=O)O [Example 301] | 85.5 | 97.4 | 0.0128 | > 9950 | > 9950 | 0.175 | – | – | – | – | – | – | – |
| CC[C@H](C)[C@H](NC(=O)[C@H](CCCN)NC(=O)[C@H](CC(=O)O)NC(=O)[C@H](CC(C)C)NC(=O)[C@](C)(CC(C)C)NC(=O)[C@@H](NC(=O)[C@](C)(CO)NC(=O)[C@H](Cc1ccc(O)cc1)NC(=O)[C@H](CC(=O)O)NC(=O)[C@H](CO)NC(=O)[C@@H](NC(=O)[C@](C)(Cc1ccccc1F)NC(=O)[C@@H](NC(=O)CNC(=O)[C@H](CCC(=O)O)NC(=O)C(C)(C)NC(=O)[C@@H](N)Cc1ccc(O)cc1)[C@@H](C)O)[C@@H](C)O)[C@@H](C)CC)C(=O)N[C@@H](C)C(=O)N[C@@H](CCC(N)=O)C(=O)NC(C)(C)C(=O)N[C@@H](CCC(=O)O)C(=O)N[C@@H](Cc1ccccc1)C(=O)N[C@H](C(=O)N[C@@H](CCCCNC(=O)COCCOCCNC(=O)COCCOCCNC(=O)CC[C@H](NC(=O)CCCCCCCCCCCCC(=O)O)C(=O)O)C(=O)N[C@@](C)(Cc1ccc(O)cc1)C(=O)N[C@@H](CC(C)C)C(=O)N[C@H](C(=O)N[C@@H](CCCCNC(=O)COCCOCCNC(=O)COCCOCCNC(=O)CC[C@H](NC(=O)CCCCCCCCCCCCC(=O)O)C(=O)O)C(=O)NCC(=O)NCC(=O)N1CCC[C@H]1C(=O)N[C@@H](CO)C(=O)N[C@@H](CO)C(=O)NCC(=O)N[C@@H](C)C(=O)N1CCC[C@H]1C(=O)N1CCC[C@H]1C(=O)N1CCC[C@H]1C(=O)N[C@@H](CO)C(N)=O)[C@@H](C)CC)[C@@H](C)CC [Example 303] | 89.8 | 100 | 0.0178 | > 9950 | > 9950 | 0.389 | 111 | – | – | – | – | – | – |
| CC[C@H](C)[C@H](NC(=O)[C@H](CCCN)NC(=O)[C@H](CC(=O)O)NC(=O)[C@H](CC(C)C)NC(=O)[C@](C)(CC(C)C)NC(=O)[C@@H](NC(=O)C(C)(C)NC(=O)[C@@H](NC(=O)[C@H](CC(=O)O)NC(=O)[C@H](CO)NC(=O)[C@@H](NC(=O)[C@](C)(Cc1ccccc1F)NC(=O)[C@@H](NC(=O)CNC(=O)[C@H](CCC(=O)O)NC(=O)C(C)(C)NC(=O)[C@@H](N)Cc1ccc(O)cc1)[C@@H](C)O)[C@@H](C)O)C(C)C)[C@@H](C)CC)C(=O)N[C@@H](C)C(=O)N[C@@H](CCC(N)=O)C(=O)NC(C)(C)C(=O)N[C@@H](CCC(=O)O)C(=O)N[C@@H](Cc1ccccc1)C(=O)N[C@H](C(=O)N[C@@H](CCCCNC(=O)COCCOCCNC(=O)COCCOCCNC(=O)CC[C@H](NC(=O)CCCCCCCCCCCCC(=O)O)C(=O)O)C(=O)N[C@@](C)(Cc1ccc(O)cc1)C(=O)N[C@@H](CC(C)C)C(=O)N[C@H](C(=O)N[C@@H](CCCCNC(=O)COCCOCCNC(=O)COCCOCCNC(=O)CC[C@H](NC(=O)CCCCCCCCCCCCC(=O)O)C(=O)O)C(=O)NCC(=O)NCC(=O)N1CCC[C@H]1C(=O)N[C@@H](CO)C(=O)N[C@@H](CO)C(=O)NCC(=O)N[C@@H](C)C(=O)N1CCC[C@H]1C(=O)N1CCC[C@H]1C(=O)N1CCC[C@H]1C(=O)N[C@@H](CO)C(N)=O)[C@@H](C)CC)[C@@H](C)CC [Example 304] | – | 110 | 0.047 | > 9950 | > 9950 | 0.474 | 98.3 | – | – | – | – | – | – |
| CC[C@H](C)[C@H](NC(=O)[C@H](CCCN)NC(=O)[C@H](CC(=O)O)NC(=O)[C@H](CC(C)C)NC(=O)[C@](C)(CC(C)C)NC(=O)[C@@H](NC(=O)[C@](C)(CO)NC(=O)[C@@H](NC(=O)[C@H](CC(=O)O)NC(=O)[C@H](CO)NC(=O)[C@@H](NC(=O)[C@](C)(Cc1ccccc1F)NC(=O)[C@@H](NC(=O)CNC(=O)[C@H](CCC(=O)O)NC(=O)C(C)(C)NC(=O)[C@@H](N)Cc1ccc(O)cc1)[C@@H](C)O)[C@@H](C)O)C(C)C)[C@@H](C)CC)C(=O)N[C@@H](C)C(=O)N[C@@H](CCC(N)=O)C(=O)NC(C)(C)C(=O)N[C@@H](CCC(=O)O)C(=O)N[C@@H](Cc1ccccc1)C(=O)N[C@H](C(=O)N[C@@H](CCCCNC(=O)COCCOCCNC(=O)COCCOCCNC(=O)CC[C@H](NC(=O)CCCCCCCCCCCCC(=O)O)C(=O)O)C(=O)N[C@@](C)(Cc1ccc(O)cc1)C(=O)N[C@@H](CC(C)C)C(=O)N[C@H](C(=O)N[C@@H](CCCCNC(=O)COCCOCCNC(=O)COCCOCCNC(=O)CC[C@H](NC(=O)CCCCCCCCCCCCC(=O)O)C(=O)O)C(=O)NCC(=O)NCC(=O)N1CCC[C@H]1C(=O)N[C@@H](CO)C(=O)N[C@@H](CO)C(=O)NCC(=O)N[C@@H](C)C(=O)N1CCC[C@H]1C(=O)N1CCC[C@H]1C(=O)N1CCC[C@H]1C(=O)N[C@@H](CO)C(N)=O)[C@@H](C)CC)[C@@H](C)CC [Example 305] | 95.4 | 105 | 0.0289 | > 9950 | > 9950 | 0.629 | 125 | – | – | – | – | – | – |
| CC[C@H](C)[C@H](NC(=O)[C@H](CCCN)NC(=O)[C@H](CC(=O)O)NC(=O)[C@H](CC(C)C)NC(=O)[C@](C)(CC(C)C)NC(=O)[C@@H](NC(=O)[C@](C)(CO)NC(=O)[C@H](Cc1ccncc1)NC(=O)[C@H](CC(=O)O)NC(=O)[C@H](CO)NC(=O)[C@@H](NC(=O)[C@](C)(Cc1ccccc1F)NC(=O)[C@@H](NC(=O)CNC(=O)[C@H](CCC(=O)O)NC(=O)C(C)(C)NC(=O)[C@@H](N)Cc1ccc(O)cc1)[C@@H](C)O)[C@@H](C)O)[C@@H](C)CC)C(=O)N[C@@H](C)C(=O)N[C@@H](CCC(N)=O)C(=O)NC(C)(C)C(=O)N[C@@H](CCC(=O)O)C(=O)N[C@@H](Cc1ccccc1)C(=O)N[C@H](C(=O)N[C@@H](CCCCNC(=O)COCCOCCNC(=O)COCCOCCNC(=O)CC[C@H](NC(=O)CCCCCCCCCOc1ccc(C(=O)O)cc1)C(=O)O)C(=O)N[C@@](C)(Cc1ccc(O)cc1)C(=O)N[C@@H](CC(C)C)C(=O)N[C@H](C(=O)N[C@@H](CCCCNC(=O)COCCOCCNC(=O)COCCOCCNC(=O)CC[C@H](NC(=O)CCCCCCCCCOc1ccc(C(=O)O)cc1)C(=O)O)C(=O)NCC(=O)NCC(=O)N1CCC[C@H]1C(=O)N[C@@H](CO)C(=O)N[C@@H](CO)C(=O)NCC(=O)N[C@@H](C)C(=O)N1CCC[C@H]1C(=O)N1CCC[C@H]1C(=O)N1CCC[C@H]1C(=O)N[C@@H](CO)C(N)=O)[C@@H](C)CC)[C@@H](C)CC [Example 306] | – | – | – | – | – | – | – | 1.12 | 0.0227 | > 9950 | > 9950 | 105 | 0.414 |
